In one experiment the target is T1, human B2 receptor (Homo sapiens, UniProt P30411).
T1 construct: expressed in transfected cells; host or cells: CHO cells (membranes)
T1 sequence (P30411 1-391): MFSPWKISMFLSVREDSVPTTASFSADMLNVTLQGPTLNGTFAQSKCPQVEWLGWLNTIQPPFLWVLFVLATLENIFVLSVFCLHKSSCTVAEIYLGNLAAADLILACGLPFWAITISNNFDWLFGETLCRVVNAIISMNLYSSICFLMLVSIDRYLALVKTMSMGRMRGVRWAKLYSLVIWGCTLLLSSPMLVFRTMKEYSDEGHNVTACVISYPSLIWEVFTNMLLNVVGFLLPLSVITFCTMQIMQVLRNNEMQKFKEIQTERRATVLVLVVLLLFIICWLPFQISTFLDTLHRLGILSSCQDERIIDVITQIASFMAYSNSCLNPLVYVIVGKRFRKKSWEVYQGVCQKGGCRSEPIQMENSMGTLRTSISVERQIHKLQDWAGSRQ
As to the kind of experiment: competitive binding test on CHO cell membranes expressing the human B2 receptor using [3H]-bradykinin as ligand. The method, then:
The activity of the products according to the invention was evaluated, according to a first aspect, as a function of their aptitude to bind to the bradykinin B2 receptors. […] It is likewise known that bradykinin is amongst one of the most powerful algesic agents known. The mode of action of kinins and more particularly of bradykinin makes a coupling of the peptides to the two types of receptors called B1 and B2 respectively take place. The B2 receptor belongs to the large family of receptors with seven transmembrane domains coupled to the G proteins and seems to be more particularly involved in the field of the pathologies mentioned above. This is the reason why the products of the invention, which have the property of being able to bind to the B2 receptor, inhibit the binding of bradykinin and, consequently, suppress its harmful activity. The test employed in order to measure this property is a competitive binding test on CHO cell membranes expressing the human B2 receptor using bradykinin labelled with tritium ([^3H]-bradykinin) as ligand.
The results are expressed by the Ki value, as calculated according to the recommended method with the description of the test employed and described according to D. Pruneau et al., in Br. J. Pharmacol. 1998, 125 p 365-372.

Another experiment has as its target T2, bradykinin B2 receptor (Homo sapiens, UniProt P30411).
T2 construct: from tissue; host or cells: isolated human umbilical vein
T2 sequence (P30411 1-391): T1 sequence (P30411 1-391)
As to the kind of experiment: inhibition of the contraction of the isolated human umbilical vein in the presence of bradykinin. The class given is cell-based. An excerpt:
This antagonist character is expressed by the value pA2, calculated according to a biological test employed in order to measure the inhibition of the contraction of the isolated human umbilical vein by the compounds according to the invention in the presence of bradykinin. The test procedure and the method of calculation of pA2 are described in the articles of D. Pruneau et al. published in Br. J. Pharmacol. 1998, 125, p 365-372 and J L. Paquet et al. Br. J. Pharmacol. 1999, 126 (in print).

Setting [1] is: isolated human umbilical vein, contraction in the presence of bradykinin, read-out: pA2 (converted).

Counter-ions that a name gives are not always drawn. Like-named read-outs stand apart in the source and are kept apart here.

Here are results for ten compounds from patent US6479515B1, “Heterocyclic benzenesulphonamide compounds as bradykinine antagonists” (Fournier Industrie et Sante, priority 1999, dated 2002).

By Ki is commonly meant the dissociation constant of the complex between target and ligand, obtained from inhibition or displacement. The low end stands for a stronger hold on the target, the high end for a looser hold on the target. One may read the pA2 as the negative logarithm of the molar antagonist concentration that doubles the agonist concentration needed for the same response.

As for “1-[[2,4-Dichloro-3-[[2(L)-[[4-(2-pyridinyl)-1-piperazinyl]carbonyl]-1-pyrrolidinyl]sulphonyl]-N-methyl-N-[3-[[3-(hydroxy)propyl]-(methyl)amino]propyl]-2(S)-pyrrolidinecarboxamide, methanesulphonate [Example 105]”, the Ki at human B2 receptor was 7.7 nM. Also, at bradykinin B2 receptor (isolated human umbilical vein, contraction in the presence of bradykinin), the pA2 turned out to be 8.3.

The compound `Cc1cc(-n2ccnc2)c2cccc(OCc3c(Cl)ccc(S(=O)(=O)N4CCC[C@H]4C(=O)NCC4CCN(CCC(=O)O)CC4)c3Cl)c2n1` [Example 115, 4-[[[[1-[[2,4-Dichloro-3-[[[4-(1H-imidazol-1-yl)-2-methyl-8-quinolinyl]oxy]-methyl]phenyl]sulphonyl]-2(S)-pyrrolidinyl]carbonyl]amino]methyl]-1-piperidinepropanoic acid, tartrate] returned a Ki on human B2 receptor of 35 nM. Moreover, the Kb at bradykinin B2 receptor is 3.16 nM.

At human B2 receptor, `Cc1cc(-n2ccnc2)c2cccc(OCc3c(Cl)ccc(S(=O)(=O)N4CCC[C@H]4C(=O)NCc4ccccn4)c3Cl)c2n1` [Example 89, 1-[[2,4-Dichloro-3-[[[4-(1H-imidazol-1-yl)-2-methyl-8-quinolinyl]oxy]methyl]-phenyl]sulphonyl]-N-[(2-pyridinyl)methyl]-2(S)-pyrrolidinecarboxamide, methanesulphonate] showed an inhibitory constant (Ki) of 55 nM. The Kb at bradykinin B2 receptor (setting [1]) is 10 nM.

In turn, `Cc1cc(-n2ccnc2)c2cccc(OCc3c(Cl)ccc(S(=O)(=O)N4CC[C@@H](O)C4)c3Cl)c2n1` [Example 170, 1-[[2,4-Dichloro-3-[[[4-(1H-imidazol-1-yl)-2-methyl-8-quinolinyl]oxy]methyl]-phenyl]sulphonyl]-3(R)-pyrrolidinol, tartrate] yielded a Ki on human B2 receptor of 7.8 nM. The Kb on bradykinin B2 receptor is 10 nM.

`Cc1cc(-n2cncn2)c2cccc(OCc3c(Cl)ccc(S(=O)(=O)N4CCC[C@H]4C(=O)NCCN(C)C)c3Cl)c2n1` [Example 83, 1-[[2,4-Dichloro-3-[[[2-methyl-4-(1H-1,2,4-triazol-1-yl)-8-quinolinyl]oxy]-methyl]phenyl]sulphonyl]-N-[2-(dimethylamino)ethyl]-2(S)-pyrrolidine-carboxamide, tartrate] displayed a Ki at human B2 receptor of 14 nM. For the same compound, the Kb at bradykinin B2 receptor was 12.6 nM.

Take `Cc1cc(-n2ccnc2)c2cccc(OCc3c(Cl)ccc(S(=O)(=O)N4CCC[C@H]4C(=O)NCCN4CCCC4)c3Cl)c2n1` [Example 75, 1-[[2,4-Dichloro-3-[[[4-(1H-imidazol-1-yl)-2-methyl-8-quinolinyl]oxy]methyl]-phenyl]sulphonyl]-N-[2-(1-pyrrolidinyl)ethyl]-2(S)-pyrrolidinecarboxamide, tartrate]: at human B2 receptor, the inhibition constant (Ki) was 2.8 nM. On bradykinin B2 receptor, the Kb was 5.01 nM.

In the case of `Cc1cc(-n2ccnc2)c2cccc(OCc3c(Cl)ccc(S(=O)(=O)N4CCC[C@H]4C(=O)NCC4CCNCC4)c3Cl)c2n1` [Example 10, 1-[[2,4-Dichloro-3-[[[4-(1H-imidazol-1-yl)-2-methyl-8-quinolinyl]oxy]methyl]-phenyl]sulphonyl]-N-(4-piperidinylmethyl)-2(S)-pyrrolidinecarboxamide, ditartrate], the affinity on human B2 receptor, expressed as Ki, was 1 nM. Moreover, on bradykinin B2 receptor, the Kb is 3.16 nM.

`CC(=O)N[C@H]1CCN(S(=O)(=O)c2ccc(Cl)c(COc3cccc4c(-n5ccnc5)cc(C)nc34)c2Cl)C1` [Example 174, N-[1-[[2,4-Dichloro-3-[[[4-(1H-imidazol-1-yl)-2-methyl-8-quinolinyl]oxy]-methyl]phenyl]sulphonyl]-3(S)-pyrrolidinyl]acetamide] gave an inhibition constant Ki on human B2 receptor of 8.8 nM. Besides, the Kb at bradykinin B2 receptor (setting [1]) is 7.94 nM.

`Cc1cc(-n2ccnc2)c2cccc(OCc3c(Cl)ccc(S(=O)(=O)N4CCC[C@H]4C(=O)NCC4CCN(CCCCO)CC4)c3Cl)c2n1` [Example 32, 1-[[2,4-Dichloro-3-[[[4-(1H-imidazol-1-yl)-2-methyl-8-quinolinyl]oxy]methyl]-phenyl]sulphonyl]-N-[[1-(4-hydroxybutyl)-4-piperidinyl]methyl]-2(S)-pyrrolidinecarboxamide, tartrate] yielded an inhibition constant Ki on human B2 receptor of 1.4 nM. For the same compound, the Kb at bradykinin B2 receptor was 0.794 nM.

Consider `Cc1cc(-n2ccnc2)c2cccc(OCc3c(Cl)ccc(S(=O)(=O)N4CCC[C@H]4C(=O)N(C)CCN(C)CCCCO)c3Cl)c2n1` [Example 103, 1-[[2,4-Dichloro-3-[[[4-(1H-imidazol-1-yl)-2-methyl-8-quinolinyl]oxy]methyl]-phenyl]sulphonyl]-N-methyl-N-[2-[[4-(hydroxy)butyl](methyl)amino]ethyl]-2(S)-pyrrolidinecarboxamide, methanesulphonate], for which, at human B2 receptor, the Ki stood at 21 nM. Also, on bradykinin B2 receptor (setting [1]), the Kb is 12.6 nM.
